Experiments:
[1] = biological target: T1, Neutrophil elastase (Homo sapiens) (UniProt P08246); assay: In vitro inhibitory activity against human leukocyte elastase (HLE), at a concentration of 75 uM
T1 sequence (whole entry): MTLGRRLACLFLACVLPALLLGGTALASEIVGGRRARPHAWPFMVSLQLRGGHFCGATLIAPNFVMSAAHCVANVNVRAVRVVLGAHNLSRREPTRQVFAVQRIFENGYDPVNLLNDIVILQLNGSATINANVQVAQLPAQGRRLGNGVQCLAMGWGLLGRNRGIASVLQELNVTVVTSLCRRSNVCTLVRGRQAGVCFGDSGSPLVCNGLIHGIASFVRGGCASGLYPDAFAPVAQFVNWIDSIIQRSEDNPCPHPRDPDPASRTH

Neutrophil elastase = biological target: T2, Neutrophil elastase (Homo sapiens, UniProt P08246); assay: In vitro inhibitory activity against human leukocyte elastase (HLE)
T2 sequence (P08246 whole entry): T1 sequence (whole entry)

[2] = biological target: T1, Neutrophil elastase (Homo sapiens); assay: In vitro inhibitory activity against human leukocyte elastase (HLE), at a concentration of 1.5 uM
[3] = biological target: T1, Neutrophil elastase (Homo sapiens); assay: In vitro inhibitory activity against human leukocyte elastase (HLE), at a concentration of 15 uM

| Structure (SMILES) | inhibition [1] [%] | IC50 (Neutrophil elastase) [µM] | inhibition [2] [%] | inhibition [3] [%] |
| --- | --- | --- | --- | --- |
| O=c1oc(/C2=C/CCCCCC2)nc2ccccc12 | 87 | 7 | 23 | 64.5 |
| CCOC(=O)C1CCC(c2nc3ccccc3c(=O)o2)=CC1C (centres undefined) | 20.8 |  | 6 | 12 |

Further lines, results first:

| inhibition [1] [%] | IC50 (Neutrophil elastase) [µM] | inhibition [2] [%] | inhibition [3] [%] | Structure (SMILES) |
| --- | --- | --- | --- | --- |
| 99.6 | 0.61 | 69.9 | 92.8 | COc1ccc2c(c1)CCC=C2c1nc2ccccc2c(=O)o1 |
| 88.7 | 5.5 | 22.6 | 65 | O=c1oc(-c2ccco2)nc2ccccc12 |
| 76 | 17 | 16.2 | 45.7 | O=c1oc(-c2ccccc2)nc2ccccc12 |

— ChEMBL document CHEMBL1132044, “Synthesis and in vitro and in vivo evaluation of the 2-(6'methoxy-3',4'-dihydro-1'-naphtyl)-4H-3,1-benzoxazin-4-one as a new potent substrate inhibitor of human leukocyte elastase” (Bioorg Med Chem Lett, 1999)
